Results published in patent US20020177621A1, “Antifungal fragrance composition” (priority 2000, published 2002).
“Also recorded” adds a separate entry of the source.

Columns and labels:
Assay type in all cases: cell-based
[1] = system: Aspergillus niger IFO 9455 (An-1); test: Fragrant vapor antifungal activity (impregnated paper disc on cover of inverted agar plate); details: 72 hours at 27° C.; for IZ: Diameter of growth inhibition zone: 20 μl fragrance (or 40 μl of 50% ethanol solution) on disc, >85 = growth inhibited over entire plate; for SI: Diameter of spore formation inhibition zone / Growth: Growth status outside the inhibition zone: 20 μl fragrance on disc; for Growth: Growth status outside the inhibition zone: compared with control
Description: (§1) Physiological saline containing 0.05% Tween-80 was added to a slant on which the test organism grew well, and a spore suspension was produced at 1×10^6 CFU (Colony Forming Units)/ml in accordance with ordinary methods. Potato dextrose agar (PDA: Nissui Pharmaceutical) was used for the medium. To begin with, 10 ml of sterile PDA was pipetted into a Petri dish and after it solidified, another 6 ml of PDA containing 1% of the above described spore suspension was overlaid and solidified to prepare the test agar plate. For the fragrance sample, if the sample is in the form of liquid at ordinary temperatures, 20 μl of liquid was directly impregnated into a paper disc (Advantech, diameter: 8 mm, thick material), while a 50% by weight ethanol solution was prepared for crystals or powder, and 40 μl of that solution was then impregnated into the paper disc.
(§2) The test agar plate was placed inversely, and the paper disc impregnated with the fragrance sample was placed in the center of the cover of the agar plate, followed by incubating for 72 hours at 27° C. Evaluation was made based on the diameter (mm) of the mold growth inhibition zone. When mold growth was inhibited over the entire surface of the agar plate, the diameter of the growth inhibition zone was reported as >85 mm. At locations where mold grew outside the inhibition zone, the diameter of the spore formation inhibition zone and the degree of growth were recorded by comparing with a control. The molds used in the test are shown in Table 1, wherein these molds consist of mold species that are isolated at high frequencies from rooms and bath rooms.
(§3) The amount of blended fragrance added to the paper discs was 20 μl each, and only the diameter of the inhibition zone (mm) is indicated for the results.

[2] = system: Aureobasidium pullulans IFO 6353 (Ap-1); test: as above; details: 72 hours at 27° C.; for IZ: Diameter of growth inhibition zone: 20 μl fragrance (or 40 μl of 50% ethanol solution) on disc, >85 = growth inhibited over entire plate; for Growth: Growth status outside the inhibition zone: compared with control
Description: as §1, §2, §3

[3] = system: Cladosporium cladosporioides IFO 6348 (Cc-1); test: as above; details: 72 hours at 27° C.; for IZ: Diameter of growth inhibition zone: 20 μl fragrance (or 40 μl of 50% ethanol solution) on disc, >85 = growth inhibited over entire plate; for Growth: Growth status outside the inhibition zone: 20 μl fragrance on disc, compared with control
Description: as §1, §2, §3

An-1 (Aspergillus niger) = test: Confirmation of synergistic action of two fragrances (vapor, paper disc); details: for IZ (diameter of growth inhibition zone) / Growth (growth status outside the inhibition zone) / SI (diameter of spore formation inhibition zone): 72 hours at 27° C.; for IZ (diameter of growth inhibition zone): sample amount on disc: citral 2 μl, benzaldehyde 10 μl, dimethyl tetrahydrobenzaldehyde 20 μl, geraniol 10 μl, octyl aldehyde 20 μl, 9-decen-1-ol 0.5 μl, trans-2-undecenal 3 μl, phenylacetaldehyde 5 μl, A + B = both amounts on one disc; for Growth (growth status outside the inhibition zone): sample amounts as in Table 3 (citral 2 μl, benzaldehyde 10 μl, dimethyl tetrahydrobenzaldehyde 20 μl, geraniol 10 μl, octyl aldehyde 20 μl, 9-decen-1-ol 0.5 μl, trans-2-undecenal 3 μl, phenylacetaldehyde 5 μl; A + B = both); for SI (diameter of spore formation inhibition zone): sample amounts as in Table 3 (citral 2 μl, benzaldehyde 10 μl, dimethyl tetrahydrobenzaldehyde 20 μl, geraniol 10 μl, octyl aldehyde 20 μl, trans-2-undecenal 3 μl, phenylacetaldehyde 5 μl; A + B = both); for Synergistic effect: second fragrance that shows synergistic action with the fragrance component / Antagonistic effect: second fragrance that shows antagonistic action with the fragrance component / Additive effect: second fragrance that shows additive action with the fragrance component: value = combination partner; for Synergistic effect: second fragrance that shows synergistic action with the fragrance component: combined IZ 20 mm or more larger than sum of single IZ; for Antagonistic effect: second fragrance that shows antagonistic action with the fragrance component: combined IZ 20 mm or more smaller than sum of single IZ; for Additive effect: second fragrance that shows additive action with the fragrance component: combined IZ intermediate
Description: An agar plate prepared according to the method of Example 1 was used while using An-1 (Aspergillus niger) for the test fungi. […] 10 μl of the ethanol containing the Table 3 prescribed amount of the fragrance was impregnated into a paper disc. The test agar plate was placed inversely, and the paper disc impregnated with each fragrance alone and a paper disc simultaneously impregnated with two types of fragrances were placed in the center of the cover, followed by incubating for 72 hours at 27° C. and measuring the diameters of the resulting growth inhibition zones.
The results obtained as in Example 2 with other combinations are shown in Tables 4 through 7 as combination examples of respective synergistic, additive and antagonistic actions for each fragrant chemical product (a). […] It should be noted that in order to make the table smaller, combinations that have already been listed once are not listed in other columns of the tables.

Compound: CC(C)=CCC/C(C)=C/CO [Geraniol]
- IZ: Diameter of growth inhibition zone [1]: 45 mm
- SI: Diameter of spore formation inhibition zone [1]: 65 mm
- Growth: Growth status outside the inhibition zone [1]: good
- IZ: Diameter of growth inhibition zone [2]: 30 mm
- SI: Diameter of spore formation inhibition zone ([2]; 20 μl fragrance on disc): 45 mm
- Growth: Growth status outside the inhibition zone ([2]; 20 μl fragrance on disc): good
- IZ: Diameter of growth inhibition zone [3]: 70 mm
- Growth: Growth status outside the inhibition zone [3]: weak
- IZ (diameter of growth inhibition zone) (An-1 (Aspergillus niger)): 30 mm
- Growth (growth status outside the inhibition zone) (An-1 (Aspergillus niger)): weak
- SI (diameter of spore formation inhibition zone) (An-1 (Aspergillus niger)): 45 mm
- Synergistic effect: second fragrance that shows synergistic action with the fragrance component (An-1 (Aspergillus niger)): 1-Nonanal
- Antagonistic effect: second fragrance that shows antagonistic action with the fragrance component (An-1 (Aspergillus niger)): Citronellol,; also recorded: Eugenol
- Additive effect: second fragrance that shows additive action with the fragrance component (An-1 (Aspergillus niger)): Thymol,

Compound: CCCCCCCC=O [Octyl aldehyde]
- IZ: Diameter of growth inhibition zone [1]: 10 mm
- SI: Diameter of spore formation inhibition zone [1]: >85 mm
- Growth: Growth status outside the inhibition zone [1]: weak
- IZ: Diameter of growth inhibition zone [2]: >85 mm
- Growth: Growth status outside the inhibition zone ([2]; 20 μl fragrance on disc): none
- IZ: Diameter of growth inhibition zone [3]: >85 mm
- Growth: Growth status outside the inhibition zone [3]: none
- IZ (diameter of growth inhibition zone) (An-1 (Aspergillus niger)): 10 mm
- Growth (growth status outside the inhibition zone) (An-1 (Aspergillus niger)): weak
- SI (diameter of spore formation inhibition zone) (An-1 (Aspergillus niger)): 35 mm
- Synergistic effect: second fragrance that shows synergistic action with the fragrance component (An-1 (Aspergillus niger)): Cumin aldehyde
- Antagonistic effect: second fragrance that shows antagonistic action with the fragrance component (An-1 (Aspergillus niger)): Citronellol
- Additive effect: second fragrance that shows additive action with the fragrance component (An-1 (Aspergillus niger)): 1-Decanol and Thymol, and Anisaldehyde, and Geraniol,

Compound: C=CCCCCCCCCO [Example 9-Decen-1-ol, 9-Decen-1-ol]
- IZ: Diameter of growth inhibition zone [1]: >85 mm
- Growth: Growth status outside the inhibition zone [1]: none
- IZ: Diameter of growth inhibition zone [2]: 65 mm
- Growth: Growth status outside the inhibition zone ([2]; 20 μl fragrance on disc): weak
- IZ: Diameter of growth inhibition zone [3]: >85 mm
- Growth: Growth status outside the inhibition zone [3]: none
- IZ (diameter of growth inhibition zone) (An-1 (Aspergillus niger)): 0 mm
- Growth (growth status outside the inhibition zone) (An-1 (Aspergillus niger)): weak
- Synergistic effect: second fragrance that shows synergistic action with the fragrance component (An-1 (Aspergillus niger)): 1-Decanol
- Additive effect: second fragrance that shows additive action with the fragrance component (An-1 (Aspergillus niger)): Thymol
